Laboratory results from paper PMC7660557, “Identification of a non-classical three-dimensional nuclear localization signal in the intestinal fatty acid binding protein” (PLoS ONE, 2020).

Key:
Assay in all cases: fluorescence titration of purified protein, hyperbolic fit, […]°C
[1] = target: T1, drFabp2 (intestinal fatty acid binding protein) (Danio rerio, UniProt A0A8M1P5F0)
T1 construct: gene fabp2; Full-length wild-type, recombinant from E. coli BL21 (DE3), delipidated (apo)
T1 sequence (A0A8M1P5F0 1-132): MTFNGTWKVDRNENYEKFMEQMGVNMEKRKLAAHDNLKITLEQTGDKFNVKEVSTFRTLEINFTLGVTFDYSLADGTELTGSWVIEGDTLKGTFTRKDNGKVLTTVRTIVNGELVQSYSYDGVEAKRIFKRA

[2] = target: T2, drFabp2 (intestinal fatty acid binding protein) (Danio rerio, UniProt A0A8M1P5F0, K17A/K30A/R29A)
T2 construct: gene fabp2; Full-length mutant, recombinant from E. coli BL21 (DE3), delipidated (apo)
T2 sequence (A0A8M1P5F0 entry or part of it K17A/R29A/K30A): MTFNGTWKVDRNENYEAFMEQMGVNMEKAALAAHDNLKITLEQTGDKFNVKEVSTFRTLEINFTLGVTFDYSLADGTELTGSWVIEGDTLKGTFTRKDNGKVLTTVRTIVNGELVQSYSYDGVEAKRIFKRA

[3] = target: T3, drFabp2 (intestinal fatty acid binding protein) (Danio rerio, UniProt A0A8M1P5F0, K17A/K28A/R29A)
T3 construct: gene fabp2; Full-length mutant, recombinant from E. coli BL21 (DE3), delipidated (apo)
T3 sequence (A0A8M1P5F0 entry or part of it K17A/K28A/R29A): as the sequence (A0A8M1P5F0 entry or part of it K17A/R29A/K30A) above, with K28A, A30K counted along it

Q: `CC1=CC(C)=[N+]2C1=Cc1ccc(CCCCCCCCCCCCCCCC(=O)O)n1[B-]2(F)F` [BODIPY FL C16] was tested. Which Kd [1] did it give?
A: The Kd was 160 nM.

Q: And the Kd [2]?
A: The Kd was 129 nM.

Q: And the Kd [3]?
A: The Kd was 112 nM.
